Experimental data published in article PMC11012721 (International Journal of Molecular Sciences, 2024).

What was measured:
mice [1] = assay: passive avoidance test, SCOP-induced long-term memory impairment; type: in vivo
Protocol: (§1) The passive avoidance test in mice is used to assess fear-related learning and memory. The apparatus consists of an acrylic box with two chambers: white (10 × 13 × 15 cm) and black (25 × 20 × 15 cm). During the experiment, the white chamber is illuminated with a bright light (8 W). The black chamber, which is equipped with an electric grid base, is connected to the illuminated chamber.
(§2) A pre-test (training) was carried out before the experiments. Each mouse was placed individually in the illuminated chamber of the device and allowed to explore it within 30 s. The guillotine door separating the two chambers was then opened. The mouse was then allowed to enter the black chamber, where it was immediately treated with an electric shock (0.2 mA) for 2 s. The latency to enter the black chamber was recorded (TL1). During the retention trial, which was performed 24 h after the pre-test, the same mouse was again placed in the lighted chamber of the device. The time required to enter the black chamber was recorded (TL2). In contrast to the pre-test, no foot shock was administered this time. […] The index of latency (IL) was calculated as follows:IL = (TL2 − TL1)/TL1(1)
(§3) After the 30 min delay, the pre-test was performed.

mice [2] = assay: passive avoidance test, LPS-induced long-term memory impairment; type: in vivo; details: LPS 2.5 mg/kg ip
Protocol: as §1, §2, §3

[3] = HPLC-ESI-QTOF-MS/MS determination of astragaloside IV in organs post mortem; type: in vivo, mice; details: for content in kidney (Av) / content in liver (Av) / content in spleen (Av) / content in brain (Av): 1 h after injection, n = 3
Protocol: They were then homogenized in an Eppendorff plastic vial kept in ice. The homogenates of the organs were vortexed with 200 µL of 50% ethanol for 10 min. The Eppendorff vials were centrifuged at 3500 rpm for 5 min and the supernatant was filtered through a nylon syringe filter with a diameter of 0.22 µm into the autosampler vials with the glass inserts. […] Due to the small size and mass of brains, AIV was quantified in these organs after addition of the reference compound (Sigma Aldrich, St. Louis, MO, USA) to the samples. […] The peak areas of astragaloside IV in the brains were compared with the blank solution of the standard compound. The levels of astragaloside IV in the other organs were measured without the presence of the reference compound.
(§4) The liquid chromatograph consisted of a degasser, a binary pump, a column oven, an autosampler and the high-resolution mass detector QTOF-MS/MS with an electrospray ionization source. The chromatographic column Zorbax Eclipse Plus (Agilent Technologies, CA, USA) (150 mm × 2.1 mm, 3.2 um, RP-18) was used to separate the metabolites of the injected matrix in the following gradient of acetonitrile with 0.1% formic acid (solvent B) in the 0.1% aqueous solution of formic acid (solvent A): 0 min—2% B, 2 min—10% B, 6 min—40% B, 35–37 min—95% B and 37.5 min—2% B. The analysis time was set to 43 min, the follow-up time to 5 min, the flow rate to 0.2 mL/min and the injection volume to 10 μL. The detailed settings of the mass spectrometer were as follows: a capillary voltage of 3000 V, a skimmer voltage of 65 V, a mass range of 100–1200 m/z, a collision energy of 10 and 20 V, a nebulizer pressure of 30 psig, a gas flow rate of 12 L/min and gas and sheath gas temperatures of 250 and 325 °C. The Mass Hunter Workstation (version B.10.00) from Agilent Technologies was used to record and process the data obtained. […] For each of the concentrations, the average values of the content of the tested substance in the respective organ were calculated. The standard deviation (SD) values were calculated in each case. The recorded mass chromatograms for the brain samples (injection with saline: n = 2, injection with LPS: n = 3 and 25 mg/kg b.w. with LPS injection: n = 3) were analyzed with the Mass Profiler Professional Program 15.1 from Agilent Technologies (Santa Clara, CA, USA) with a built-in pathways analysis module that uses the Kyoto Encyclopedia of Genes and Genomes (KEGG) database to detect the effects of the injected substance on molecular mechanisms. First, the raw data from the recorded chromatograms were exported in csv format and analyzed in the program. […] Of the 517 entities analyzed, eleven differentiating m/z signals were detected in the samples, with p < 0.05 and a fold change of 2 settings. One of the differentiating signals was phosphatydylcholine, whose behavior in the tested samples was analyzed with the pathways module.

[4] = tested on: phosphatidylcholine PC(22:4(7Z, 10Z, 13Z, 16Z)/16:0) level; assay: phosphatidylcholine level in brain samples, pathway analysis (Mass Profiler Professional, KEGG); type: in vivo, mice; details: for effect on phosphatidylcholine level in brains: LPS model
Protocol: as §4

AChE = details: previous studies; cited from earlier work
[5] = set-up: method as in Zhang et al. [60]; details: ref Zhang et al. [60]; cited from earlier work
mice [6] = assay: locomotor activity test (photoresistance actimeters); details: 6, 12.5 or 25 mg/kg ip; 30 min measurement; p > 0.05
[7] = AIV smaller doses (6, 12.5 mg/kg ip), p > 0.05
[8] = AIV 6, 12.5 or 25 mg/kg ip, p > 0.05 vs LPS

CC(C)(O)[C@@H]1CC[C@](C)([C@H]2[C@@H](O)C[C@@]3(C)[C@@H]4C[C@H](O[C@@H]5O[C@H](CO)[C@@H](O)[C@H](O)[C@H]5O)[C@H]5C(C)(C)[C@@H](O[C@@H]6OC[C@@H](O)[C@H](O)[C@H]6O)CC[C@@]56C[C@@]46CC[C@]23C)O1 [AIV, astragaloside IV]
attenuation of SCOP-impaired acquisition of long-term memory (mice [1]; AIV 25 mg/kg ip before SCOP 1 mg/kg ip, p < 0.001 vs SCOP): attenuated | attenuation of SCOP-impaired consolidation of long-term memory (mice [1]; AIV 25 mg/kg ip, SCOP 1 mg/kg ip, p < 0.01 vs SCOP): attenuated | attenuation of SCOP-impaired acquisition of long-term memory (mice [1]; [7]): ineffective | attenuation of SCOP-impaired consolidation of long-term memory (mice [1]; [7]): ineffective | effect of AIV itself on acquisition of long-term memory (mice [1]; all doses tested (6, 12.5, 25 mg/kg ip), no SCOP, p < 0.001 vs control): improved acquisition | attenuation of LPS-impaired acquisition of long-term memory (mice [2]; [8]): did not attenuate | attenuation of LPS-impaired consolidation of long-term memory (mice [2]; [8]): did not attenuate | content in kidney (Av) ([3]; 6 mg/kg ip): 0.0174 mg/Organ | content in liver (Av) ([3]; 6 mg/kg ip): 0.00411 mg/Organ | content in spleen (Av) ([3]; 6 mg/kg ip): 0.03766 mg/Organ | content in brain (Av) ([3]; 12.5 mg/kg ip): 0.00012 mg/Organ | content in kidney (Av) ([3]; 12.5 mg/kg ip): 0.03882 mg/Organ | content in liver (Av) ([3]; 12.5 mg/kg ip): 0.01084 mg/Organ | content in spleen (Av) ([3]; 12.5 mg/kg ip): 0.04919 mg/Organ | content in brain (Av) ([3]; 25 mg/kg ip): 0.00023 mg/Organ | content in kidney (Av) ([3]; 25 mg/kg ip): 0.08892 mg/Organ | content in liver (Av) ([3]; 25 mg/kg ip): 0.02316 mg/Organ | content in spleen (Av) ([3]; 25 mg/kg ip): 0.06844 mg/Organ | dose dependence of concentration in soft organ tissues ([3]; 6, 12.5, 25 mg/kg ip): dose-dependent | rank order of content in soft organs ([3]; ip, mice, post mortem): highest content of the saponin was found in the kidneys, then in the spleen, liver and brain | effect on phosphatidylcholine level in brains ([4]; astragaloside IV 25 mg/kg b.w. ip): restored the level of the compound to that of saline administration | AChE inhibition (AChE): inhibitor of AChE | route of excretion [5]: excreted slowly via hepatic clearance | effect on locomotor activity (mice [6]): no effect

CN1[C@@H]2C[C@@H](OC(=O)[C@H](CO)c3ccccc3)C[C@H]1[C@@H]1O[C@@H]12 [SCOP, Scopolamine, reference compound]
effect on memory acquisition and consolidation vs control mice (mice [1]; SCOP 1 mg/kg ip, p < 0.001): impaired both memory acquisition and consolidation

lipopolysaccharide [LPS]
effect on memory acquisition and consolidation vs control mice (mice [2]; p < 0.001): impaired both memory acquisition and consolidation | effect on phosphatidylcholine level in brains [4]: decrease the level of phosphatidylcholines | Kennedy Pathway log2 (phosphatidylcholine level) ([4]; brain samples, LPS group): 0 | One-Carbon Metabolism log2 (phosphatidylcholine level) ([4]; brain samples, LPS group): 0
